Each structure is given as a SMILES string. Where a name gives a salt, the structure may show the parent alone.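 A five-concentration, 48-hour dose response in 96-well plates underlies each endpoint, interpolated linearly between surrounding concentrations. GI50 = concentration required for 50% inhibition of growth.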 The source made the active and inactive calls. No stated cut-off is given here; in the data, active = GI50 up to about 1.1 µM and inactive = higher.

Some test systems named below: BT-549; Hs-578T; PC-3; DU-145; SR; MDA-N; 786-0; LXFL 529; RXF 631.
Assay in all cases: growth of human tumour cells (NCI), 48 h

`O=C1Nc2ccc(S(=O)(=O)N(CCO)CCO)cc2/C1=C1/Nc2ccccc2C1=O`: the GI50 is > 100 µM (inactive) in the experiment on BT-549; > 100 µM (inactive) in the experiment with Hs-578T; 30.3 µM (inactive) in the experiment on PC-3; 13.3 µM (inactive) with DU-145; 1.91 µM (inactive) in the experiment with SR; > 100 µM (inactive) in the experiment on MDA-N. For the same compound, in the experiment with 786-0, the GI50 is > 100 µM (inactive).
Turning to `O=C1C[C@H](c2ccccc2)C2(C(=O)c3ccccc3C2=O)[C@@H](c2ccccc2)C1`, the GI50 is 19.6 µM (inactive) in the experiment on BT-549; 17.1 µM (inactive) in the experiment on Hs-578T; 10.8 µM (inactive) with PC-3; 48.6 µM (inactive) in the experiment on DU-145; 92.7 µM (inactive) in the experiment on SR; 16.2 µM (inactive) in the experiment with MDA-N.
Take `CC1OC(OC2C(OC(=O)[C@@H]3CC(C)(C)C[C@H]4C5=CC[C@@H]6[C@@]7(C)C[C@H](O)[C@H](OC8OC(CO)C(O)C(O)C8O)[C@@](C)(CO)[C@@H]7[C@H](O)C[C@@]6(C)[C@]5(C)CC[C@@]34C)OCC(O)C2O)C(O)C(O)C1O` (stereo not given in full): the GI50 in the experiment on BT-549, with Hs-578T, with PC-3, with DU-145, in the experiment with MDA-N and in the experiment with 786-0 was > 7.5 µM (inactive) each time.
As to `CN(C)CCN(/C(=N/c1ccccc1)N1CCCC1)c1ccccc1`, the GI50 is > 100 µM (inactive) in the experiment on BT-549; > 100 µM (inactive) with Hs-578T; 19.8 µM (inactive) in the experiment with PC-3; > 100 µM (inactive) in the experiment on DU-145; 31.8 µM (inactive) in the experiment with SR; 4.1 µM (inactive) with MDA-N. Also, the GI50 in the experiment on 786-0 was > 10 µM (inactive).
`C=CC(OCC)(OCC)OCC`: the GI50 with LXFL 529 was 77.3 µM (inactive); in the experiment on RXF 631, > 100 µM (inactive); in the experiment on SR, 29.9 µM (inactive); in the experiment with 786-0, 23.5 µM (inactive).
On to `CC1CC2C3CC(F)C4=CC(=O)C=CC4(C)C3(F)C(O)CC2(C)C1(O)C(=O)COC(=O)C(C)(C)C` (stereo not given), for which the GI50 in the experiment with SR is > 100 µM (inactive); in the experiment on 786-0 it was 68.1 µM (inactive).
In the case of `CC(=O)N/C(=C\c1ccc(/C=C(\NC(C)=O)C2=NC3C(=O)c4ccccc4C(=O)C3N2)cc1)C1=NC2C(=O)c3ccccc3C(=O)C2N1` (stereo not given), the GI50 is 42.4 µM (inactive) in the experiment on LXFL 529 and 19.7 µM (inactive) with RXF 631.
Consider `NC(=O)Nc1cc(O)ccc1/N=N/c1ccc(S(=O)(=O)Nc2ccccn2)cc1`, for which the GI50 in the experiment on LXFL 529 is > 100 µM (inactive).
On to `O=C(/C=C/c1ccc(Cl)c(Cl)c1)C1CCC(Cl)CC1` (stereo not given), for which the results for the GI50 with LXFL 529, with RXF 631 and with 786-0 were 18.2 µM (inactive), 18.5 µM (inactive) and 16.8 µM (inactive), respectively.
In the case of `Nc1c(Cl)c([N+](=O)[O-])cc2c1OCCCCO2`, the GI50 with Hs-578T, in the experiment on PC-3, in the experiment on DU-145, with SR, in the experiment on MDA-N and with 786-0 was > 100 µM (inactive) each time.
On to `CCC1C[N+]23CCc4c([nH]c5ccccc45)C2CC1CC3` (stereo not given), for which the GI50 is 33.8 µM (inactive) with LXFL 529 and 39.3 µM (inactive) in the experiment on SR.
For `Cc1cc(NS(=O)(=O)c2ccc(Nc3c4ccccc4nc4c(C(=O)N5CCN(CCO)CC5)ccc(Cl)c34)cc2)no1`, the GI50 is 83.9 µM (inactive) in the experiment with RXF 631 and > 100 µM (inactive) with 786-0.
Take `COc1cc(OC)c(SSCCCCS(=O)O)c(OC)c1`: the GI50 in the experiment on LXFL 529 is 12.2 µM (inactive); in the experiment on RXF 631 it was > 10 µM (inactive); in the experiment with 786-0, 18.7 µM (inactive).
For the compound `O=C1/C(=C/c2ccc(Cl)cc2)CNC/C1=C\c1ccc(Cl)cc1`, the GI50 with BT-549 is 1.18 µM (inactive); in the experiment on Hs-578T, 3.47 µM (inactive); in the experiment with PC-3, 2.97 µM (inactive); with DU-145, 2.65 µM (inactive); with SR, 0.495 µM (active); with MDA-N, 2.71 µM (inactive). Moreover, the GI50 in the experiment with 786-0 was 1.28 µM (inactive).
For `Nc1ccc2cc3ccc(N)cc3nc2c1` [PROFLAVINE SULFATE], the GI50 was 3.19 µM (inactive) in the experiment on BT-549; 2.57 µM (inactive) with Hs-578T; 0.953 µM (active) in the experiment with LXFL 529; 1.12 µM (inactive) in the experiment on RXF 631; 2.21 µM (inactive) with DU-145; 0.444 µM (active) with SR. In the experiment on MDA-N, the GI50 is 1.21 µM (inactive).
